Data taken from article PMC12217109, “Development of novel benzamide class I selective lysine deacetylase inhibitors as potent anticancer agents” (Journal of Enzyme Inhibition and Medicinal Chemistry, 2025).

Legend:
NCI/ADR-RES = test: NCI-60 cytotoxicity screen; type: cell-based; conditions: Homo sapiens, NCI-60, 48 h, ovarian
Text: (§1) Compounds 3–7 were submitted to the US National Cancer Institute (NIH, Bethesda, Maryland) for screening against the NCI-60 panel of human cancer cell lines, as per standard protocol.

MCF-7 = test: NCI-60 cytotoxicity screen; type: cell-based; conditions: Homo sapiens, MCF7; NCI-60, 48 h, breast
Text: as §1

SF-539 = test: NCI-60 cytotoxicity screen; type: cell-based; conditions: Homo sapiens, NCI-60, 48 h, CNS
Text: as §1

IGROV-1 = test: NCI-60 cytotoxicity screen; type: cell-based; conditions: Homo sapiens, NCI-60, 48 h, ovarian
Text: as §1

BT 549 = test: NCI-60 cytotoxicity screen; type: cell-based; conditions: Homo sapiens, NCI-60, 48 h, breast
Text: as §1

DU-145 = test: NCI-60 cytotoxicity screen; type: cell-based; conditions: Homo sapiens, NCI-60, 48 h, prostate
Text: as §1

SF-268 = test: NCI-60 cytotoxicity screen; type: cell-based; conditions: Homo sapiens, NCI-60, 48 h, CNS
Text: as §1

H522 = test: NCI-60 cytotoxicity screen; type: cell-based; conditions: Homo sapiens, NCI-60, 48 h, NSCLC
Text: as §1

UO-31 = test: NCI-60 cytotoxicity screen; type: cell-based; conditions: Homo sapiens, NCI-60, 48 h, renal
Text: as §1

HL-60 = test: NCI-60 cytotoxicity screen; type: cell-based; conditions: Homo sapiens, NCI-60, 48 h, leukaemia
Text: as §1

SW620 = test: NCI-60 cytotoxicity screen; type: cell-based; conditions: Homo sapiens, SW-620; NCI-60, 48 h, colon
Text: as §1

PC-3 = test: NCI-60 cytotoxicity screen; type: cell-based; conditions: Homo sapiens, NCI-60, 48 h, prostate
Text: as §1

RXF 393 = test: NCI-60 cytotoxicity screen; type: cell-based; conditions: Homo sapiens, NCI-60, 48 h, renal
Text: as §1

SK-MEL-2 = test: NCI-60 cytotoxicity screen; type: cell-based; conditions: Homo sapiens, NCI-60, 48 h, melanoma
Text: as §1

SK-MEL-28 = test: NCI-60 cytotoxicity screen; type: cell-based; conditions: Homo sapiens, NCI-60, 48 h, melanoma
Text: as §1

A549 = test: NCI-60 cytotoxicity screen; type: cell-based; conditions: Homo sapiens, NCI-60, 48 h, NSCLC
Text: as §1

SNB-19 = test: NCI-60 cytotoxicity screen; type: cell-based; conditions: Homo sapiens, NCI-60, 48 h, CNS
Text: as §1

H23 = test: NCI-60 cytotoxicity screen; type: cell-based; conditions: Homo sapiens, NCI-60, 48 h, NSCLC
Text: as §1

UACC-62 = test: NCI-60 cytotoxicity screen; type: cell-based; conditions: Homo sapiens, NCI-60, 48 h, melanoma
Text: as §1

HOP-62 = test: NCI-60 cytotoxicity screen; type: cell-based; conditions: Homo sapiens, NCI-60, 48 h, NSCLC
Text: as §1

MDA-MB-435 = test: NCI-60 cytotoxicity screen; type: cell-based; conditions: Homo sapiens, NCI-60, 48 h, melanoma
Text: as §1

SF-295 = test: NCI-60 cytotoxicity screen; type: cell-based; conditions: Homo sapiens, NCI-60, 48 h, CNS
Text: as §1

786-0 = test: NCI-60 cytotoxicity screen; type: cell-based; conditions: Homo sapiens, NCI-60, 48 h, renal
Text: as §1

COLO205 = test: NCI-60 cytotoxicity screen; type: cell-based; conditions: Homo sapiens, COLO 205; NCI-60, 48 h, colon
Text: as §1

SK-MEL-5 = test: NCI-60 cytotoxicity screen; type: cell-based; conditions: Homo sapiens, NCI-60, 48 h, melanoma
Text: as §1

HCT15 = test: NCI-60 cytotoxicity screen; type: cell-based; conditions: Homo sapiens, HCT-15; NCI-60, 48 h, colon
Text: as §1

ACHN = test: NCI-60 cytotoxicity screen; type: cell-based; conditions: Homo sapiens, NCI-60, 48 h, renal
Text: as §1

SR = test: NCI-60 cytotoxicity screen; type: cell-based; conditions: Homo sapiens, NCI-60, 48 h, leukaemia
Text: as §1

OVCAR-3 = test: NCI-60 cytotoxicity screen; type: cell-based; conditions: Homo sapiens, NCI-60, 48 h, ovarian
Text: as §1

RPMI-8226 = test: NCI-60 cytotoxicity screen; type: cell-based; conditions: Homo sapiens, NCI-60, 48 h, leukaemia
Text: as §1

H460 = test: NCI-60 cytotoxicity screen; type: cell-based; conditions: Homo sapiens, NCI-60, 48 h, NSCLC
Text: as §1

SN12C = test: NCI-60 cytotoxicity screen; type: cell-based; conditions: Homo sapiens, NCI-60, 48 h, renal
Text: as §1

HS 578 T = test: NCI-60 cytotoxicity screen; type: cell-based; conditions: Homo sapiens, NCI-60, 48 h, breast
Text: as §1

SNB-75 = test: NCI-60 cytotoxicity screen; type: cell-based; conditions: Homo sapiens, NCI-60, 48 h, CNS
Text: as §1

U251 = test: NCI-60 cytotoxicity screen; type: cell-based; conditions: Homo sapiens, U-251; NCI-60, 48 h, CNS
Text: as §1

KM12 = test: NCI-60 cytotoxicity screen; type: cell-based; conditions: Homo sapiens, NCI-60, 48 h, colon
Text: as §1

OVCAR-8 = test: NCI-60 cytotoxicity screen; type: cell-based; conditions: Homo sapiens, NCI-60, 48 h, ovarian
Text: as §1

LOX IMVI = test: NCI-60 cytotoxicity screen; type: cell-based; conditions: Homo sapiens, NCI-60, 48 h, melanoma
Text: as §1

M14 = test: NCI-60 cytotoxicity screen; type: cell-based; conditions: Homo sapiens, NCI-60, 48 h, melanoma
Text: as §1

EKVX = test: NCI-60 cytotoxicity screen; type: cell-based; conditions: Homo sapiens, NCI-60, 48 h, NSCLC
Text: as §1

CAKI-1 = test: NCI-60 cytotoxicity screen; type: cell-based; conditions: Homo sapiens, NCI-60, 48 h, renal
Text: as §1

OVCAR-4 = test: NCI-60 cytotoxicity screen; type: cell-based; conditions: Homo sapiens, NCI-60, 48 h, ovarian
Text: as §1

HeLa nuclear KDACs = test: Fluor-de-Lys HDAC fluorometric activity assay with HeLa nuclear extract; type: biochemical; conditions: for IC50: HeLa nuclear extract, up to 20 µM, read-out: HDAC Inhibition IC50; for IC20: concentration inhibiting HDAC activity by 20%, read-out: HDAC Inhibition IC20
Experimental: Total zinc-dependent KDAC (classes I, II and IV) activity was measured using the Fluor-de-Lys^TM HDAC fluorometric activity assay kit (BioMol, Exeter, UK), as per manufacturers protocol. Briefly, HeLa nuclear extract, potential inhibitor (5 nM–20 μM) and assay buffer were incubated in a 96-well fluorometric plate at 37 °C for 15 min. Acetylated substrate (100 μM) was added and the mixture incubated at 37 °C for a further 20 min. The developer was added and the mixture incubated at 37 °C for a further 15 min. Fluorescence was measured using a microplate reader (λex = 360 nm, λem = 460 nm). Percentage KDAC activity and thus KDAC inhibition was determined by quantification of fluorescence obtained in the presence versus absence of the respective inhibitor.

T-47D = test: NCI-60 cytotoxicity screen; type: cell-based, human; conditions: for IC50: Homo sapiens, T47D, NCI-60, 48 h, breast
OVCAR-5 = test: NCI-60 cytotoxicity screen; type: cell-based; conditions: Homo sapiens, NCI-60, 48 h, ovarian

Question: `C=C(CN1CCN(c2cccc(C(F)(F)F)c2)CC1)c1ccc(C(=O)Nc2ccccc2N)cc1` [Compound 4, N-(2-aminophenyl)-4–(3-(4–(3-(trifluoromethyl)phenyl)piperazin-1-yl)prop-1-en-2-yl)benzamide] was tested. Which IC50 (NCI/ADR-RES) did it give?
Answer: 0.11 µM

Question: What about the IC50 (MCF-7) of the same compound?
Answer: 1.24 µM

Question: And the IC50 (SF-539)?
Answer: 0.54 µM

Question: And the IC50 (IGROV-1)?
Answer: 14.2 µM

Question: And the IC50 (BT 549)?
Answer: 0.33 µM

Question: What about the IC50 (DU-145) of the same compound?
Answer: 1.36 µM

Question: And the IC50 (SF-268)?
Answer: 1.43 µM

Question: What about the IC50 (H522) of the same compound?
Answer: 6.14 µM

Question: And the IC50 (UO-31)?
Answer: 2.39 µM

Question: And the IC50 (HL-60)?
Answer: 0.12 µM

Question: What about the IC50 (SW620) of the same compound?
Answer: 1.28 µM

Question: What about the IC50 (PC-3) of the same compound?
Answer: 0.62 µM

Question: And the IC50 (RXF 393)?
Answer: 1.62 µM

Question: What about the IC50 (SK-MEL-2) of the same compound?
Answer: 3.44 µM

Question: What about the IC50 (SK-MEL-28) of the same compound?
Answer: 3.4 µM

Question: What about the IC50 (A549) of the same compound?
Answer: 1.48 µM

Question: What about the IC50 (SNB-19) of the same compound?
Answer: 4.1 µM

Question: What about the IC50 (H23) of the same compound?
Answer: 3.72 µM

Question: What about the IC50 (UACC-62) of the same compound?
Answer: 0.41 µM

Question: What about the IC50 (HOP-62) of the same compound?
Answer: 0.7 µM

Question: What about the IC50 (MDA-MB-435) of the same compound?
Answer: 0.14 µM

Question: What about the IC50 (SF-295) of the same compound?
Answer: 0.54 µM

Question: And the IC50 (786-0)?
Answer: 1.1 µM

Question: And the IC50 (COLO205)?
Answer: 3.45 µM

Question: And the IC50 (SK-MEL-5)?
Answer: 0.57 µM

Question: What about the IC50 (HCT15) of the same compound?
Answer: 0.48 µM

Question: And the IC50 (ACHN)?
Answer: 0.92 µM

Question: And the IC50 (SR)?
Answer: 0.02 µM

Question: And the IC50 (OVCAR-3)?
Answer: 0.55 µM

Question: And the IC50 (RPMI-8226)?
Answer: 0.32 µM

Question: And the IC50 (H460)?
Answer: 1.56 µM

Question: What about the IC50 (SN12C) of the same compound?
Answer: 0.29 µM

Question: And the IC50 (HS 578 T)?
Answer: 0.49 µM

Question: And the IC50 (SNB-75)?
Answer: 0.01 µM

Question: And the IC50 (U251)?
Answer: 1.17 µM

Question: What about the IC50 (KM12) of the same compound?
Answer: 0.49 µM

Question: What about the IC50 (OVCAR-8) of the same compound?
Answer: 1.4 µM

Question: What about the IC50 (LOX IMVI) of the same compound?
Answer: 0.12 µM

Question: What about the IC50 (M14) of the same compound?
Answer: 1.05 µM

Question: What about the IC50 (EKVX) of the same compound?
Answer: 2.92 µM

Question: What about the IC50 (CAKI-1) of the same compound?
Answer: 0.63 µM

Question: And the IC50 (OVCAR-4)?
Answer: 3.94 µM

Question: And the IC50 (HeLa nuclear KDACs)?
Answer: > 20 µM

Question: And the IC20 (HeLa nuclear KDACs)?
Answer: 5 ± 1.5 µM

Question: What about the IC50 (T-47D) of the same compound?
Answer: 13.2 µM

Question: And the “fold less sensitive than to 1, T-47D” value (T-47D; T-47D breast cell line)?
Answer: > 28 fold

Question: And the IC50 (OVCAR-5)?
Answer: 6.62 µM

Question: Which results are given for `C=C(CN1CCN(c2ccc(C(F)(F)F)cc2)CC1)c1ccc(C(=O)Nc2ccccc2N)cc1` [Compound 5, N-(2-aminophenyl)-4–(3-(4–(4-(trifluoromethyl)phenyl)piperazin-1-yl)prop-1-en-2-yl)benzamide]?
Answer: IC50 (NCI/ADR-RES): 3.37 µM; IC50 (MCF-7): 10.9 µM; IC50 (SF-539): 8.15 µM; IC50 (IGROV-1): 18.2 µM; IC50 (BT 549): 6.92 µM; IC50 (DU-145): 21 µM; IC50 (SF-268): 6.78 µM; IC50 (H522): 1.85 µM; IC50 (UO-31): 0.97 µM; IC50 (HL-60): 0.08 µM; IC50 (SW620): 78.9 µM; IC50 (PC-3): 1.29 µM; IC50 (RXF 393): 1.97 µM; IC50 (SK-MEL-2): > 100 µM; IC50 (SK-MEL-28): > 100 µM; IC50 (A549): 6.43 µM; IC50 (SNB-19): 12.6 µM; IC50 (H23): 9.48 µM; IC50 (UACC-62): 23 µM; IC50 (HOP-62): 8.38 µM; IC50 (MDA-MB-435): 25.2 µM; IC50 (SF-295): 10.8 µM; IC50 (786-0): 2.85 µM; IC50 (COLO205): > 100 µM; IC50 (SK-MEL-5): 4.43 µM; IC50 (HCT15): > 100 µM; IC50 (ACHN): 9.64 µM; IC50 (SR): 1.1 µM; IC50 (OVCAR-3): 12 µM; IC50 (RPMI-8226): 0.4 µM; IC50 (H460): 3.44 µM; IC50 (SN12C): 6.37 µM; IC50 (HS 578 T): 22.5 µM; IC50 (SNB-75): 12.5 µM; IC50 (U251): 6.25 µM; IC50 (KM12): 7.64 µM; IC50 (OVCAR-8): 6.95 µM; IC50 (LOX IMVI): 11.1 µM; IC50 (M14): 90.6 µM; IC50 (EKVX): 12.4 µM; IC50 (CAKI-1): 6.08 µM; IC50 (OVCAR-4): 5.68 µM; IC50 (HeLa nuclear KDACs): > 20 µM; IC20 (HeLa nuclear KDACs): 5.8 ± 1.8 µM; IC50 (T-47D): 21.8 µM; IC50 (OVCAR-5): > 100 µM
